Read-outs that look alike come from different tables or passages of the source.
Tests used:
ICE = biological target: T1, ICE (Homo sapiens, UniProt P29466); experiment: Enzyme assay with UV-visible substrate (visible ICE assay, Succinyl-Tyr-Val-Ala-Asp-pNitroanilide); assay type: biochemical
T1 sequence (P29466 120-297 limits assumed): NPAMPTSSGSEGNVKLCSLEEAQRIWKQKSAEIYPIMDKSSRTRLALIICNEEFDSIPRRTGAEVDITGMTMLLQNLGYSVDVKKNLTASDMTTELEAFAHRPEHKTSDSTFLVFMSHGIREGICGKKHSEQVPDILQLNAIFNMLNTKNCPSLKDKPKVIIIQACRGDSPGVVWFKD
T1 sequence (P29466 317-404 limits assumed): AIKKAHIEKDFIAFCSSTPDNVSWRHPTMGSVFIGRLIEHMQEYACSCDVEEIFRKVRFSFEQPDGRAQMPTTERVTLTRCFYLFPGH
Outline: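 Colorimetric caspase-1 activity: 15 min enzyme-inhibitor preincubation (RT), then Suc-Tyr-Val-Ala-Asp-pNA; 405-603 nm kinetics, 20 min, 37° C. Ki from rate fitting.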

[1] = tested on: IL-1β, human peripheral blood mononuclear cells (PBMC); experiment: PBMC cell assay: IL-1β assay with human PBMC or enriched adherent mononuclear cells, LPS-stimulated; assay type: cell-based
Outline: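 Buffy-coat human PBMC at 6×10^6 cells/ml, or adherent monocytes enriched by 1 h adherence (2.5−3.0×10^5 cells/well), are given 5–6 compound dilutions bracketing the ICE Ki (final DMSO 0.1%) plus LPS at a final 5 ng/ml. They are incubated 16–18 hr at 37 °C, 5% CO2, and supernatant mature IL-1β is measured by ELISA, with duplicate cultures and duplicate ELISAs.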

IL-1β, human whole blood = experiment: Whole blood assay for IL-1β production; assay type: cell-based; details: read-out: Whole human blood IC50
Outline: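 Human whole blood collected on Na2EDTA was treated with serially diluted compound in saline and then stimulated with LPS at 5.0 ng/ml final, for 16-18 h at 30 °C, in duplicate or triplicate. Plasma IL-1β was measured by ELISA at 1:200 dilution.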

[2] = Homo sapiens, PBMC, * = values obtained upon reassay
[3] = Homo sapiens, * = values obtained upon reassay
[4] = * = values obtained upon reassay

| SMILES | Ki (ICE; Table 5) | IC50 [1, 2] | IC50 (IL-1β, human whole blood; [3]) | IC50 (IL-1β, human whole blood; [4]) | IC50 [1, 4] | Ki (ICE; Table 17) | IC50 ([1]; Homo sapiens, PBMC, Table 17) | IC50 (IL-1β, human whole blood; Homo sapiens, Table 17) |
| --- | --- | --- | --- | --- | --- | --- | --- | --- |
| Cc1nc(-c2ccc(C(F)(F)F)cc2)sc1C(=O)N[C@H]1CCC(=O)N2CCC[C@@H](C(=O)N[C@H](C=O)CC(=O)O)N2C1=O [Compound 468] | 4.5 nM | 850 nM | 2500 nM |  |  |  |  |  |
| Cc1cc2c(cc1C(=O)N[C@H]1CCC(=O)N3CCC[C@@H](C(=O)N[C@H](C=O)CC(=O)O)N3C1=O)OCO2 [Compound 473] | 1 nM | 1000 nM | 400 nM | 450 nM |  |  |  |  |
| Cc1c(O)cccc1C(=O)N[C@H]1CCC(=O)N2CCC[C@@H](C(=O)N[C@H](C=O)CC(=O)O)N2C1=O [Compound 476] | 7 nM | 1600 nM | 2500 nM |  |  |  |  |  |
| Nc1c(Cl)cc(C(=O)N[C@H]2CCC(=O)N3CCC[C@@H](C(=O)N[C@H](C=O)CC(=O)O)N3C2=O)cc1Cl [Compound 482] | < 0.2 nM | 340 nM | 380 nM | 260 nM |  |  |  |  |
| O=C[C@H](CC(=O)O)NC(=O)[C@@H]1CCCN2C(=O)CC[C@H](NC(=O)c3ccc(NC(=O)c4ccccc4)cc3)C(=O)N12 [Compound 483] | 1.7 nM | 900 nM | 700 nM |  |  |  |  |  |
| CCC(=O)Nc1ccc(C(=O)N[C@H]2CCC(=O)N3CCC[C@@H](C(=O)N[C@H](C=O)CC(=O)O)N3C2=O)cc1 [Compound 485] | 2 nM | 900 nM | 900 nM |  |  |  |  |  |
| CCCC(=O)Nc1ccc(C(=O)N[C@H]2CCC(=O)N3CCC[C@@H](C(=O)N[C@H](C=O)CC(=O)O)N3C2=O)cc1 [Compound 488] | 1.5 nM | 940 nM | 750 nM |  |  |  |  |  |
| CNC(=O)Nc1ccc(C(=O)N[C@H]2CCC(=O)N3CCC[C@@H](C(=O)N[C@H](C=O)CC(=O)O)N3C2=O)cc1 [Compound 489] | 6 nM | 2250 nM | 15000 nM |  | 1700 nM |  |  |  |
| COc1ccc(C(=O)N[C@H]2CCC(=O)N3CCC[C@@H](C(=O)N[C@H](C=O)CC(=O)O)N3C2=O)cc1F [Compound 493] | 25 nM | 1200 nM | 800 nM | 850 nM |  |  |  |  |
| O=C[C@H](CC(=O)O)NC(=O)[C@@H]1CCCN2C(=O)CC[C@H](NC(=O)/C=C/c3ccccc3)C(=O)N12 [Compound 494] | 15 nM | 1350 nM | 7000 nM |  | 1500 nM |  |  |  |
| O=C[C@H](CC(=O)O)NC(=O)[C@@H]1CCCN2C(=O)CC[C@H](NC(=O)OCc3ccccc3)C(=O)N12 [Compound 496] | 16 nM | 1550 nM | 6000 nM |  | 1600 nM |  |  |  |
| COc1ccc(C(=O)N[C@H]2CCC(=O)N3CCC[C@@H](C(=O)N[C@H](C=O)CC(=O)O)N3C2=O)cc1Cl [Compound 497] | 3.5 nM | 740 nM | 350 nM | 700 nM |  |  |  |  |
| O=C[C@H](CC(=O)O)NC(=O)[C@@H]1CCCN2C(=O)CC[C@H](NC(=O)c3ccc(O)c(Cl)c3)C(=O)N12 [Compound 498] | 1.5 nM | 560 nM | 500 nM | 400 nM |  |  |  |  |
| O=C[C@H](CC(=O)O)NC(=O)[C@@H]1CCCN2C(=O)CC[C@H](NC(=O)c3ccc(OCc4ccccc4)cc3)C(=O)N12 [Compound 499] | 3.5 nM | 1200 nM | 9000 nM |  | 800 nM |  |  |  |
| O=C[C@H](CC(=O)O)NC(=O)[C@@H]1CCCN2C(=O)CC[C@H](NC(=O)C(=O)Nc3ccc(Cl)cc3)C(=O)N12 [Compound 500] |  |  |  |  |  | 25 nM | 1800 nM | 1800 nM |
| COc1cccc(OC)c1C(=O)C(=O)N[C@H]1CCC(=O)N2CCC[C@@H](C(=O)N[C@H](C=O)CC(=O)O)N2C1=O [Compound 501] |  |  |  |  |  | 2.5 nM | 1800 nM | 1600 nM |
| O=C[C@H](CC(=O)O)NC(=O)CN1C(=O)[C@@H](NC(=O)c2ccccc2)CN(C(=O)CCc2ccccc2)c2ccccc21 [Compound 605a, (3S)-3-[(3S)-2-oxo-3-benzoylamino-5-(3-phenylpropionyl)-2,3,4,5-tetrahydro-1H-1,5-benzodiazepin-1-acetylamino-]4-oxo-butyric acid] | 90 nM | 2600 nM | > 20000 nM |  |  |  |  |  |
| O=C[C@H](CC(=O)O)NC(=O)CN1C(=O)[C@@H](NC(=O)c2ccccc2)CN(C(=O)NCc2ccccc2)c2ccccc21 [Compound 605p, (3S)-3-[(3S)-2-Oxo-3-benzoylamino-5-benzylaminocarbonyl-2,3,4,5-tetrahydro-1H-1,5-benzodiazepin-1-acetylamino]-4-oxo-butyric acid] | 125 nM | 3200 nM | > 20000 nM |  |  |  |  |  |
| CC(=O)N1C[C@H](NC(=O)c2nccc3ccccc23)C(=O)N(CC(=O)N[C@H](C=O)CC(=O)O)c2ccccc21 [Compound 620] | 35 nM | 1000 nM | 19000 nM |  |  |  |  |  |
| CC(=O)N1C[C@H](NC(=O)c2cccc3ccccc23)C(=O)N(CC(=O)N[C@H](C=O)CC(=O)O)c2ccccc21 [Compound 621] | 7.2 nM | 1300 nM | > 20000 nM |  |  |  |  |  |
| CC(=O)N1C[C@H](NC(=O)c2ccc3cc(O)ccc3c2)C(=O)N(CC(=O)N[C@H](C=O)CC(=O)O)c2ccccc21 [Compound 622] | 35 nM | 1300 nM | > 20000 nM |  |  |  |  |  |
| CC(=O)Nc1ccc(C(=O)N[C@H]2CN(C(C)=O)c3ccccc3N(CC(=O)N[C@H](C=O)CC(=O)O)C2=O)cc1 [Compound 627] | 43 nM | 3250 nM | 8000 nM |  |  |  |  |  |
| CC(=O)N1C[C@H](NC(=O)c2ccc3c(c2)OCO3)C(=O)N(CC(=O)N[C@H](C=O)CC(=O)O)c2ccccc21 [Compound 628] | 36 nM | 2750 nM | > 20000 nM |  |  |  |  |  |
| CC(=O)N1C[C@H](NC(=O)OCc2ccccc2)C(=O)N(CC(=O)N[C@H](C=O)CC(=O)O)c2ccccc21 [Compound 633] | 92 nM | 5750 nM | 20000 nM |  |  |  |  |  |
| CC(=O)N1C[C@H](NC(=O)C(=O)c2ccccc2)C(=O)N(CC(=O)N[C@H](C=O)CC(=O)O)c2ccccc21 [Compound 635] | 55 nM | 1900 nM | 4000 nM |  | 3400 nM |  |  |  |
| COCC(=O)N1C[C@H](NCc2ccc3ccccc3c2)C(=O)N(CC(=O)N[C@H](C=O)CC(=O)O)c2ccccc21 [Compound 640, (3S)-3-[(3S)-2-Oxo-3-(2-naphthylmethylene)amino-5-methoxyacetyl-2,3,4,5-tetrahydro-1H-1,5-benzodiazepine-1-acetylamino]-4-oxo-butyric acid] |  |  |  |  |  | 155 nM | 2250 nM | 3900 nM |
| COCC(=O)N1C[C@H](NC(=O)C(=O)c2ccccc2)C(=O)N(CC(=O)N[C@H](C=O)CC(=O)O)c2ccccc21 [Compound 642, (3S)-3-[(3S)-2-Oxo-3-benzoylformylamino-5-methoxyacetyl-2,3,4,5-tetrahydro-1H-1,5-benzodiazepine-1-acetylamino]-4-oxo-butyric acid] |  |  |  |  |  | 35 nM | 8000 nM | 2900 nM |
| O=C[C@H](CC(=O)O)NC(=O)CN1C(=O)[C@@H](NC(=O)c2cccc3ccccc23)CN(C=O)c2ccccc21 [Compound 653, (3S)-3-[(3S)-2-Oxo-3-(1-naphthoyl)amino-5-formyl-2,3,4,5-tetrahydro-1H-1,5-benzodiazepine-1-acetylamino]-4-oxo-butyric acid] |  |  |  |  |  | 30 nM | 2300 nM | 6000 nM |

Source: patent publication US20120165319A1, “INHIBITORS OF INTERLEUKIN-1 BETA CONVERTING ENZYME” (VERTEX PHARMACEUTICALS INCORPORATED, priority 1995, published 2012)
